{"source": "patent US20090005345A1", "about": "“Detoxification of Shellfish” (priority 2005, published 2009)", "system": "bivalves", "assay": "Feed test: detoxification of DSP-toxin containing bivalves by feeding in land-based vessels, DSP by HPLC", "format": "in vivo", "settings": "Test 5; additive given separately in addition to bioprotein; 7.2° C.", "description": "Seawater from a depth of 45 metres in the Eidfjord, with a salinity of 33-34 per mille, was pumped up into a reservoir on land. The water was then passed into the test vessels. The bivalves were evenly distributed on the mesh/grating in a layer of about 10 cm in thickness. The vessel diameter is about 70 cm. In these small scale tests importance was given to ensuring that oxygen should not be a limiting factor. That is to say that there is sufficient flow-through of water to obtain approximate oxygen saturation in the outflow. The amount of water through each vessel was about 8 litres per minute.\nFeeding was effected automatically batchwise throughout the day. That is to say that the daily consumption of the feed slurry according to Example 1 was filled into a tank once a day. The slurry runs from this tank to the bivalve vessel cascade via a valve. In our tests we chose to feed batchwise once an hour. Such portion feeding is important in order to obtain an even distribution to the whole bivalve population. The feed was added in the course of a few seconds. […]\nIn the case of all the tests, samples were taken immediately prior to the test start and after given time periods. […] The samples were analysed at the Norwegian College of Veterinary Medicine using HPLC (High Performance Liquid Chromatography).\nThe half-life for DSP was calculated using the following formula: […]"}
{"smiles": "O=C1O[C@H]([C@@H](O)CO)C(O)=C1O", "note": "[Vitamin C]", "values": [{"measurement": "Effect on DSP half-life of additive used in addition to bioprotein", "value": "no effect"}]}
